Measured values as given in patent US9133207B2, “Tetrandrine derivatives with substituted 5-carbon, preparation method and use thereof” (Hangzhou Bensheng Pharmaceutical Co., Ltd., priority 2011, dated 2015).
Values after ≈ are worked out from the molar mass of the structure shown.

Key:
[1] = test system: drug-resistant lung cancer cell GLC-82/ADR; settings: while adriamycin is used, without tetrandrine; cited from earlier work
[2] = test system: RPMI8226 (multiple myeloma); assay: Multiple myeloma cell growth inhibition, MTT, 72 h (Example 6); format: cell-based, human; settings: Homo sapiens, RPMI-8226; 72 h, MTT, RPMI8226
Summary of the method: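 Viability was read by MTT after 72 h of compound exposure at 37 °C, 5% CO2. Each well held 6000 RPMI8226 cells in 1640 medium containing 10% fetal bovine serum, with derivatives added at various concentrations.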

[3] = test system: MG63 (osteosarcoma); assay: Solid tumor cell growth inhibition, MTT, 72 h (Example 7); format: cell-based, human; settings: for IC50 / IC90: Homo sapiens, 72 h, MTT, MG-63
Summary of the method: (§1)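 Viability (%) relative to compound-free controls (100%) comes from MTT measurement following 72 h drug exposure at 37 °C, 5% CO2. Seeding density: 4000 cells/well, 24 h before dosing.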

[4] = test system: PC-3 (prostate cancer); assay: as above; format: cell-based, human; settings: Homo sapiens; 72 h, MTT, PC-3
Summary of the method: as §1

[5] = test system: CaES-17 (esophageal cancer cell); assay: as above; format: cell-based, human; settings: for IC50 / IC90: Homo sapiens, CaEs17, 72 h, MTT, CAES-17
Summary of the method: as §1

[6] = test system: Hep-2 (laryngeal carcinoma); assay: as above; format: cell-based, human; settings: for IC50 / IC90: Homo sapiens, 72 h, MTT, Hep 2
Summary of the method: as §1

[7] = test system: PANC-1 (pancreatic cancer); assay: as above; format: cell-based, human; settings: Homo sapiens; 72 h, MTT, PANC-1
Summary of the method: as §1

[8] = test system: Jurkat (acute lymphoblastic leukemia, ALL); assay: Leukemia cell growth inhibition, MTT, 72 h (Example 5); format: cell-based, human; settings: for IC50 / IC90: Homo sapiens, Jurkat, 72 h, MTT
Summary of the method: (§2)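 RPMI 1640 + 10% FBS, 6000 cells/well; tetrandrine derivatives at various concentrations; 37° C, 5% CO2, 72 h; viability by MTT.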

[9] = test system: K562/adr (drug-resistant, chronic myeloid leukemia, CML); assay: as above; format: cell-based, human; settings: Homo sapiens, K562/Adr; 72 h, MTT
Summary of the method: as §2

[10] = test system: H9 (acute lymphoblastic leukemia, ALL); assay: as above; format: cell-based, human; settings: for IC50 / IC90: Homo sapiens, 72 h, MTT
Summary of the method: as §2

[11] = test system: NB4 (acute promyelocytic leukemia, AML); assay: as above; format: cell-based, human; settings: for IC50 / IC90: Homo sapiens, 72 h, MTT
Summary of the method: as §2

[12] = test system: Kasumi-1 (acute myeloid leukemia M2 type, AML-M2); assay: as above; format: cell-based, human; settings: Homo sapiens, Kasumi 1
Summary of the method: as §2

[13] = test system: MGC 803 (human gastric cancer cell); assay: Solid tumor cell growth inhibition, MTT, 72 h (Example 7); format: cell-based; settings: Homo sapiens
Summary of the method: as §1

[14] = test system: SK-OV-3 (ovarian cancer cell); assay: as above; format: cell-based; settings: Homo sapiens
Summary of the method: as §1

[15] = test system: Huh7 (human liver cancer cell); assay: as above; format: cell-based; settings: Homo sapiens; 72 h, MTT, Huh-7
Summary of the method: as §1

[16] = test system: RKO (human colon adenocarcinoma cell); assay: as above; format: cell-based; settings: for IC50 / IC90: Homo sapiens, 72 h, MTT, RKO
Summary of the method: as §1

[17] = test system: Hela (human cervical cancer cell); assay: as above; format: cell-based; settings: for IC50 / IC90: Homo sapiens, 72 h, MTT, Hela
Summary of the method: as §1

[18] = test system: CNE (nasopharyngeal carcinoma cell); assay: as above; format: cell-based; settings: Homo sapiens
Summary of the method: as §1

[19] = test system: Becap37 (human breast cancer cell); assay: as above; format: cell-based; settings: for IC50 / IC90: Homo sapiens, 72 h, MTT, Becap-37
Summary of the method: as §1

[20] = test system: U87 MG (malignant glioma cell); assay: as above; format: cell-based; settings: Homo sapiens, U-87 MG
Summary of the method: as §1

[21] = test system: A549 (human lung cancer); assay: as above; format: cell-based; settings: Homo sapiens; 72 h, MTT, A549
Summary of the method: as §1

COc1cccc2c1C(=O)c1c(O)c3c(c(O)c1C2=O)C[C@@](O)(C(=O)CO)C[C@@H]3O[C@H]1C[C@H](N)[C@H](O)[C@H](C)O1 [adriamycin]
drug-resistance index [1]: 5.43

COc1ccc2cc1Oc1ccc(cc1)C[C@H]1c3cc(c(OC)cc3CCN1C)Oc1c(OC)c(OC)c(COCCOc3ccccc3)c3c1[C@H](C2)N(C)CC3 [BS-TE-402]
IC50 [2]: 0.25 µg/mL (≈ 0.323 µM)
IC90 [2]: 1.17 µg/mL (≈ 1.51 µM)
IC50 [3]: 0.07 µg/mL (≈ 0.0906 µM)
IC90 [3]: 1.11 µg/mL (≈ 1.44 µM)
anti-MG63 activity increase over tetrandrine ([3]; compared with tetrandrine): 27 fold
IC50 [4]: 2.05 µg/mL (≈ 2.65 µM)
IC90 [4]: 4.71 µg/mL (≈ 6.09 µM)
IC50 [5]: 0.6 µg/mL (≈ 0.776 µM)
IC90 [5]: 4.9 µg/mL (≈ 6.34 µM)
anti-CaES-17 activity increase over tetrandrine ([5]; compared with tetrandrine): 14 fold
IC50 [6]: 0.58 µg/mL (≈ 0.75 µM)
IC90 [6]: 3.58 µg/mL (≈ 4.63 µM)
anti-Hep-2 activity increase over tetrandrine ([6]; compared with tetrandrine): 7 fold
IC50 [7]: 1.34 µg/mL (≈ 1.73 µM)
IC90 [7]: 4.04 µg/mL (≈ 5.23 µM)
IC50 [8]: 2.34 µg/mL (≈ 3.03 µM)
IC90 [8]: 5.6 µg/mL (≈ 7.25 µM)
IC50 [9]: 0.83 µg/mL (≈ 1.07 µM)
IC90 [9]: 2.55 µg/mL (≈ 3.3 µM)
IC50 [10]: 0.25 µg/mL (≈ 0.323 µM)
IC90 [10]: 1.25 µg/mL (≈ 1.62 µM)
anti-H9 activity increase over tetrandrine ([10]; compared with tetrandrine): ~12 fold
IC50 [11]: 0.2 µg/mL (≈ 0.259 µM)
IC90 [11]: 1.41 µg/mL (≈ 1.82 µM)
anti-NB4 activity increase over tetrandrine ([11]; compared with tetrandrine): ~8 fold
IC50 [12]: 1.29 µg/mL (≈ 1.67 µM)
IC90 [12]: 4.77 µg/mL (≈ 6.17 µM)
IC50 [13]: 1.5 µg/mL (≈ 1.94 µM)
IC90 [13]: 3.62 µg/mL (≈ 4.68 µM)
IC50 [14]: 1.37 µg/mL (≈ 1.77 µM)
IC90 [14]: 3.89 µg/mL (≈ 5.03 µM)
IC50 [15]: 1.09 µg/mL (≈ 1.41 µM)
IC90 [15]: 4.97 µg/mL (≈ 6.43 µM)
IC50 [16]: 0.17 µg/mL (≈ 0.22 µM)
IC90 [16]: 0.6 µg/mL (≈ 0.776 µM)
anti-RKO activity increase over tetrandrine ([16]; compared with tetrandrine): 16 fold
IC50 [17]: 0.45 µg/mL (≈ 0.582 µM)
IC90 [17]: 2.29 µg/mL (≈ 2.96 µM)
anti-Hela activity increase over tetrandrine ([17]; compared with tetrandrine): 9 fold
IC50 [18]: 1.03 µg/mL (≈ 1.33 µM)
IC90 [18]: 2.49 µg/mL (≈ 3.22 µM)
IC50 [19]: 0.52 µg/mL (≈ 0.673 µM)
IC90 [19]: 2.15 µg/mL (≈ 2.78 µM)
anti-Becap37 activity increase over tetrandrine ([19]; compared with tetrandrine): 13 fold
IC50 [20]: 0.55 µg/mL (≈ 0.712 µM)
IC90 [20]: 1.78 µg/mL (≈ 2.3 µM)
IC50 [21]: 1.35 µg/mL (≈ 1.75 µM)
IC90 [21]: 4.79 µg/mL (≈ 6.2 µM)

COc1ccc2cc1Oc1ccc(cc1)C[C@H]1c3cc(c(OC)cc3CCN1C)Oc1c(OC)c(OC)c(CNCc3ccco3)c3c1[C@H](C2)N(C)CC3 [BS-TE-350]
IC50 [2]: 0.05 µg/mL (≈ 0.0683 µM)
IC90 [2]: 1.51 µg/mL (≈ 2.06 µM)
IC50 [3]: 0.8 µg/mL (≈ 1.09 µM)
IC90 [3]: 1.6 µg/mL (≈ 2.19 µM)
IC50 [4]: 1.87 µg/mL (≈ 2.56 µM)
IC90 [4]: 2.83 µg/mL (≈ 3.87 µM)
IC50 [5]: 1.03 µg/mL (≈ 1.41 µM)
IC90 [5]: 5.13 µg/mL (≈ 7.01 µM)
IC50 [6]: 1.51 µg/mL (≈ 2.06 µM)
IC90 [6]: 4.67 µg/mL (≈ 6.38 µM)
IC50 [7]: 1.83 µg/mL (≈ 2.5 µM)
IC90 [7]: 6.04 µg/mL (≈ 8.25 µM)
IC50 [8]: 0.59 µg/mL (≈ 0.806 µM)
IC90 [8]: 2.97 µg/mL (≈ 4.06 µM)
anti-Jurkat activity increase over tetrandrine ([8]; compared with tetrandrine): ~4 fold
IC50 [9]: 0.33 µg/mL (≈ 0.451 µM)
IC90 [9]: 1.6 µg/mL (≈ 2.19 µM)
IC50 [10]: 1.11 µg/mL (≈ 1.52 µM)
IC90 [10]: 1.92 µg/mL (≈ 2.62 µM)
IC50 [11]: 0.3 µg/mL (≈ 0.41 µM)
IC90 [11]: 1 µg/mL (≈ 1.37 µM)
IC50 [12]: 0.54 µg/mL (≈ 0.738 µM)
IC90 [12]: 2.52 µg/mL (≈ 3.44 µM)
IC50 [13]: 0.89 µg/mL (≈ 1.22 µM)
IC90 [13]: 4.11 µg/mL (≈ 5.62 µM)
IC50 [14]: 1.8 µg/mL (≈ 2.46 µM)
IC90 [14]: 12.9 µg/mL (≈ 17.6 µM)
IC50 [15]: 1.82 µg/mL (≈ 2.49 µM)
IC90 [15]: 2.43 µg/mL (≈ 3.32 µM)
IC50 [16]: 0.45 µg/mL (≈ 0.615 µM)
IC90 [16]: 0.92 µg/mL (≈ 1.26 µM)
IC50 [17]: 0.95 µg/mL (≈ 1.3 µM)
IC90 [17]: 2.5 µg/mL (≈ 3.42 µM)
IC50 [18]: 1.3 µg/mL (≈ 1.78 µM)
IC90 [18]: 3.3 µg/mL (≈ 4.51 µM)
IC50 [19]: 0.9 µg/mL (≈ 1.23 µM)
IC90 [19]: 3.6 µg/mL (≈ 4.92 µM)
IC50 [20]: 0.3 µg/mL (≈ 0.41 µM)
IC90 [20]: 1.13 µg/mL (≈ 1.54 µM)
IC50 [21]: 3 µg/mL (≈ 4.1 µM)
IC90 [21]: 11 µg/mL (≈ 15 µM)
